Test results reported in patent publication US10456410B2, “Hydrogen sulfide (H2S) releasing donor compound for dermal wound regeneration” (University of South Carolina, priority 2017, dated 2019).

Legend:
[1] = H2S release from SA/JK-1 sponge at varied pH; settings: pH 6.0
[2] = H2S release kinetics from PCL-JK-1 fibrous scaffold, modified Methylene Blue method; settings: pH 6.0, PBS; PCL-JK-1 with 10% JK-1, JK-1 in solution as control (FIG. 4B)

In the case of `O=C([O-])CNP([O-])(=S)c1ccccc1.[Li+].[Li+]` (centres unmarked) [JK-1], the “time to H2S peak concentration” value [1] is reported as no more than 55 min and the “time to H2S peak concentration” value [2] is reported as no more than 10 min.
